In patent US20250387438A1, “USE OF […] SP. OR COMPOSITION COMPRISING SAME IN PREVENTION OR TREATMENT OF TUMORS, AND DRUG COMPRISING SAME” (Moon (Guangzhou) Biotech Co., Ltd., priority 2022, published 2025):

Experiments:
[1] = system: Christensenella sp. MNH04863; experiment: Antibiotic susceptibility testing by disk diffusion method; format: cell-based; conditions: for Inhibition Zone Diameter: against Christensenella sp. MNH04863
Excerpt: The disk diffusion method was used to conduct the antibiotic susceptibility testing of Christensenella sp. MNH04863. Christensenella sp.

[2] = system: KPC mouse pancreatic cancer cells; experiment: Pancreatic cancer mouse homologous tumor model, combination with gemcitabine
[3] = system: KPC mouse pancreatic cancer cells; conditions: in vivo

| Compound | Susceptibility of Christensenella sp. MNH04863 to the antibiotic [1] | Inhibition Zone Diameter [1] | also measured |
| --- | --- | --- | --- |
| O=C(O)c1cn(C2CC2)c2cc(N3CCNCC3)c(F)cc2c1=O [Ciprofloxacin (CIP), Ciprofloxacin] | resistance | 0 mm |  |
| O=C(N[C@H](CO)[C@H](O)c1ccc([N+](=O)[O-])cc1)C(Cl)Cl [Chloramphenicol (C), Chloramphenicol] | sensitive | 38.88 mm |  |
| Gentamycin [Gentamycin (GEN)] | resistance | 0 mm |  |
| Compound Sulfamethoxazole [Compound Sulfamethoxazole (SXT)] | resistance | 0 mm |  |
| CCC[C@@H]1C[C@@H](C(=O)N[C@@H]([C@H]2O[C@H](SC)[C@H](O)[C@@H](O)[C@H]2O)[C@@H](C)O)N(C)C1 [Lincomycin (MY), Lincomycin] | sensitive | 29.86 mm |  |
| CN(C)[C@@H]1C(O)=C(C(N)=O)C(=O)[C@@]2(O)C(O)=C3C(=O)c4c(O)cccc4[C@@](C)(O)[C@H]3C[C@@H]12 [Tetracycline (TET), Tetracycline] |  | 46.11 mm |  |
| CO/N=C(\C(=O)N[C@@H]1C(=O)N2C(C(=O)O)=C(CSc3nc(=O)c(=O)[nH]n3C)CS[C@H]12)c1csc(N)n1 [Ceftriaxone (CTR), Ceftriaxone] | sensitive | 37.32 mm |  |
| CC1(C)S[C@@H]2[C@H](NC(=O)[C@H](N)c3ccccc3)C(=O)N2[C@H]1C(=O)O [Ampicillin (AMP), Ampicillin] | resistance | 0 mm |  |
| CC[C@H]1OC(=O)[C@H](C)[C@@H](O[C@H]2C[C@@](C)(OC)[C@@H](O)[C@H](C)O2)[C@H](C)[C@@H](O[C@@H]2O[C@H](C)C[C@H](N(C)C)[C@H]2O)[C@](C)(O)C[C@@H](C)C(=O)[C@H](C)[C@@H](O)[C@]1(C)O [Erythromycin (E), Erythromycin] | sensitive | 16.82 mm |  |
| Penicillin [Penicillin (PEN)] | sensitive | 43.06 mm |  |
| Nc1ccn([C@@H]2O[C@H](CO)[C@@H](O)C2(F)F)c(=O)n1 [Gemcitabine] |  |  | Average Dissected Tumor Weight ([2]; experimental endpoint): 0.68 g; Experimental Endpoint TGI ([2]; vs control): 40.0%; Number of Euthanized mice ([3]; C57BL/6J): 2; Average Weight Before Dissection [3]: 21.13 g |
